Peptide text beside a SMILES is read from it.
Key:
[1] = molecular target: T1, MAPKAP-K1a (Rattus norvegicus, UniProt Q63531); assay: Substrate phosphorylation kinetics with GST-MAPKAP-K1a; format: biochemical
T1 construct: made in house; host or cells: human embryonic kidney 293 cells, TPA-stimulated
Description: (§1) FIG. 8. […] (A) Comparison of the substrate specificities of MSK1, MAPKAP-K1a and MAPKAP-K1b towards the indicated peptides and CREB. Phosphorylation and analysis was carried out as described in Materials and Methods. The standard errors for all reported kinetic constants were within <+20% (SEM), and the data is reported as mean values for 2 independent experiments. The Vmax values are reported as a percentage of the value obtained using Crosstide ([…], peptide 1 (SEQ ID NO:16)) as a substrate. The peptide […] (SEQ ID NO:18) corresponding to residues 126–136 of CREB is termed CREBtide. The serine residues shown in bold correspond to the phosphorylated serine residues on the peptides. […] (B) GST-MSK1 (solid bars), GST-MAPKAPK-1a (open bars), MAPKAP-K-1b (speckled bars) or GST-MAPKAP-K2 (diagonal bars) were assayed with the indicated substrates. […] The phosphorylation of CREB by MAPKAP-K2 shown in the figure is corrected to show only the contribution of Ser133 phosphorylation to the total incorporation of phosphate into CREB. […]
(§2) Phosphorylation of CREB and HSP27 by MSK1 and MAPKAP-K1a/b (see FIG. 8). MSK1 and MAPKAP-K1a expressed as GST fusion proteins were purified from TPA stimulated 293 cells (FIG. 3) and MAPKAP-K1b was purified from rabbit skeletal muscle (Sutherland et al., 1993). […] The ^32P-radioactivity incorporated was then determined by Cerenkov counting. […]

[2] = molecular target: T2, MAPKAP-K1b (Oryctolagus cuniculus, UniProt A0A5F9C4L9); assay: Substrate phosphorylation kinetics with MAPKAP-K1b; format: biochemical, rabbit
T2 construct: MAPKAP-K1b was purified from rabbit skeletal muscle (Sutherland et al., 1993); from tissue; host or cells: rabbit skeletal muscle
T2 sequence (A0A5F9C4L9 1-740): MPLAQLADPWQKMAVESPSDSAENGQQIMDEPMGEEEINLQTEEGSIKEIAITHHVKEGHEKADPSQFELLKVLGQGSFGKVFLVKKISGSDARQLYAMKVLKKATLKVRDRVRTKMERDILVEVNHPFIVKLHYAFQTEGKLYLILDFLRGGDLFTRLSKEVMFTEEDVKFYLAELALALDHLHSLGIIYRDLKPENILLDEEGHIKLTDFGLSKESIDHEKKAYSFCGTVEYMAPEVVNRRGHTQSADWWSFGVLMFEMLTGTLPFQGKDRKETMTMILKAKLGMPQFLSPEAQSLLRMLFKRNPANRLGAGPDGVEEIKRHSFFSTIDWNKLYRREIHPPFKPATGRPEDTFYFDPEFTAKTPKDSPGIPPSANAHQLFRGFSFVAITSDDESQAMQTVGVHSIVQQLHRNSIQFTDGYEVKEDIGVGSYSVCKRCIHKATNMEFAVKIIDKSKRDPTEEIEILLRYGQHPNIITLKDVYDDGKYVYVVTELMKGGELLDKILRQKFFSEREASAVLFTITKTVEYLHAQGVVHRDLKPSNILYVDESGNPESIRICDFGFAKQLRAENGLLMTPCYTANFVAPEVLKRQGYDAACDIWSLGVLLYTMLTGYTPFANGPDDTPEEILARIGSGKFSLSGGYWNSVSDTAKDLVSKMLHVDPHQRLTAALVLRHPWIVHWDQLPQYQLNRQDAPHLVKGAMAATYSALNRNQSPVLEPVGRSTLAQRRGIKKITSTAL
Description: as §1, §2

[3] = molecular target: MSK1 (Homo sapiens, UniProt O75582); assay: Substrate phosphorylation kinetics with GST-MSK1; format: biochemical; design: generate a full length FLAG-MSK 1 construct in the pCMV5 mammalian expression; made in house; host or cells: human embryonic kidney 293 cells (TPA-stimulated before lysis)
MSK1 (Homo sapiens, UniProt O75582), sequence (O75582 whole entry): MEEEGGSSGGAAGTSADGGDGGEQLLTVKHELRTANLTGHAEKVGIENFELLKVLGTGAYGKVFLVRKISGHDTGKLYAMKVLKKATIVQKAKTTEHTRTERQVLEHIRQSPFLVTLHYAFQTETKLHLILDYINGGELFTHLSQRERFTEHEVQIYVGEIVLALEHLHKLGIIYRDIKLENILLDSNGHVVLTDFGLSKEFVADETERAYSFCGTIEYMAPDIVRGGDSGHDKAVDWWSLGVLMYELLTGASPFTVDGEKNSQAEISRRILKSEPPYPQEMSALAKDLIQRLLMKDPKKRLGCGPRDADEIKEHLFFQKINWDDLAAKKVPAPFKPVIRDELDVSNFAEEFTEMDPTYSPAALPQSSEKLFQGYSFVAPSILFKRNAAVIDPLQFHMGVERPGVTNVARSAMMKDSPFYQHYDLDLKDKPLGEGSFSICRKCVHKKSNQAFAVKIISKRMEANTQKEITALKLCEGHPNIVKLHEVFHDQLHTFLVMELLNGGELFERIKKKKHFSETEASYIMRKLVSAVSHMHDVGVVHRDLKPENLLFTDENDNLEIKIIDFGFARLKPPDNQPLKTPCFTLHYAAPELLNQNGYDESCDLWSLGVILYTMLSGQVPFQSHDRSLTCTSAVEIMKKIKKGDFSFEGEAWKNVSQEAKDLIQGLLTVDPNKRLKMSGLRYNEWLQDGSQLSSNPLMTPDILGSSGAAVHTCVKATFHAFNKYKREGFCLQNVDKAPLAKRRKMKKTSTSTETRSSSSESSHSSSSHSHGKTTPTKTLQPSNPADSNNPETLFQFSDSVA
Description: FIG. 8. MSK1 phosphorylates CREB at Ser133. (A) Comparison of the substrate specificities of MSK1, MAPKAP-K1a and MAPKAP-K1b towards the indicated peptides and CREB. Phosphorylation and analysis was carried out as described in Materials and Methods. The standard errors for all reported kinetic constants were within <+20% (SEM), and the data is reported as mean values for 2 independent experiments. The Vmax values are reported as a percentage of the value obtained using Crosstide ([…], peptide 1 (SEQ ID NO:16)) as a substrate. The peptide […] (SEQ ID NO:18) corresponding to residues 126–136 of CREB is termed CREBtide. The serine residues shown in bold correspond to the phosphorylated serine residues on the peptides. […] 75% of the radioactivity applied to the column was recovered from the major ^32P-containing peptide at 13% acetonitrile (the remainder of the radioactivity eluted as numerous minor peaks). […]
Phosphorylation of CREB and HSP27 by MSK1 and MAPKAP-K1a/b (see FIG. 8). MSK1 and MAPKAP-K1a expressed as GST fusion proteins were purified from TPA stimulated 293 cells (FIG. 3) and MAPKAP-K1b was purified from rabbit skeletal muscle (Sutherland et al., 1993). […] The ^32P-radioactivity incorporated was then determined by Cerenkov counting. […] The supernatant, containing 95% of the ^32P-radioactivity, was chromatographed on a Vydac C18 column as described in the legend to FIG. 8. […]

[4] = test system: MAPKAP-K1a; assay: Activation of overexpressed MAPKAP-K1a in 293 cells; format: cell-based, human; conditions: TPA stimulation, data not shown
Text: FIG. 7. MSK1 is mainly localised in the nucleus of cells and MAPKAP-K1a in the cytosol. […] Data is from three independent experiments. For MSK1 controls n=9, 9 and 14; for TPA n+10, 11 and 15. For MAPKAP-K1a controls total n=22; for TPA total n=9 (excluding cells with extensive clumps of immunoreactive material in the cytoplasm). Bars represent standard error of the mean calculated according to Cochran (1953). (C) Selected samples for MSK1 (C, unstimulated and D, TPA) and for MAPKAP-K1a (E, unstimulated) are shown to illustrate structures and labelling distributions. Bar is 500 nm.
MSK1 is localised in nuclei and MAPKAP-K1a in the cytoplasm. The subcellular location of wild type MSK1 that was overexpressed in 293 cells was investigated by quantitative immunoelectron microscopy (FIG. 7). MSK1 was largely located in the nucleus of unstimulated cells. The density of MSK1 in the nuclear compartment was 12 to 30-fold higher than in the cytoplasm (FIGS. 7A and 7C). […] Consistent with this observation MAPKAP-K1a, when overexpressed in cells, was largely localised in the cytoplasm (FIG. 7B). Moreover, no significant translocation of MAPKAP-K1a to the nucleus was observed following TPA stimulation of cells (FIGS. 7B and 7E) which induces 100-fold activation of this kinase (data not shown).

[5] = test system: MSK1; assay: Activation of transfected Flag-MSK1 in 293 cells; format: cell-based, human; conditions: stimulation with the agonist
Description: FIG. 6. Effect of mutation of MSK1 on activation by TPA and UV in 293 cells. 293 cells were transiently transfected with DNA constructs expressing Flag epitope tagged wild type MSK1, N-terminal (NT) “kinase dead” MSK1 and C-terminal (CT) “kinase dead” MSK1. […] The cells were lysed and the MSK1 was immunoprecipitated from the lysates and assayed with Crosstide.
Transfection of MSK1 into 293 cells. 293 cells were cultured on 10 cm diameter dishes and transfected with the pCMV5 vector encoding the Flag epitope tagged MSK1 constructs using a modified calcium phosphate method (Alessi et al., 1996b). 24 h post-transfection, the cells were deprived of serum for 16 h, stimulated with TPA or exposed to UV radiation, the cells were then lysed in 1 ml of ice cold Buffer A, centrifuged at 13,000×g for 5 min, and the Flag tagged MSK1 protein immunoprecipitated from aliquots of lysate (containing 25 μg protein) using 2 μg of FLAG antibody coupled to 5 (1 of Protein G-Sepharose.
Immunoprecipitates were incubated, washed and assayed for MSK1 activity as described above.

[6] = test system: MAPKAP-K1; assay: NGF-induced activation of MAPKAP-K1 in PC12 cells

T1 sequence (Q63531 whole entry): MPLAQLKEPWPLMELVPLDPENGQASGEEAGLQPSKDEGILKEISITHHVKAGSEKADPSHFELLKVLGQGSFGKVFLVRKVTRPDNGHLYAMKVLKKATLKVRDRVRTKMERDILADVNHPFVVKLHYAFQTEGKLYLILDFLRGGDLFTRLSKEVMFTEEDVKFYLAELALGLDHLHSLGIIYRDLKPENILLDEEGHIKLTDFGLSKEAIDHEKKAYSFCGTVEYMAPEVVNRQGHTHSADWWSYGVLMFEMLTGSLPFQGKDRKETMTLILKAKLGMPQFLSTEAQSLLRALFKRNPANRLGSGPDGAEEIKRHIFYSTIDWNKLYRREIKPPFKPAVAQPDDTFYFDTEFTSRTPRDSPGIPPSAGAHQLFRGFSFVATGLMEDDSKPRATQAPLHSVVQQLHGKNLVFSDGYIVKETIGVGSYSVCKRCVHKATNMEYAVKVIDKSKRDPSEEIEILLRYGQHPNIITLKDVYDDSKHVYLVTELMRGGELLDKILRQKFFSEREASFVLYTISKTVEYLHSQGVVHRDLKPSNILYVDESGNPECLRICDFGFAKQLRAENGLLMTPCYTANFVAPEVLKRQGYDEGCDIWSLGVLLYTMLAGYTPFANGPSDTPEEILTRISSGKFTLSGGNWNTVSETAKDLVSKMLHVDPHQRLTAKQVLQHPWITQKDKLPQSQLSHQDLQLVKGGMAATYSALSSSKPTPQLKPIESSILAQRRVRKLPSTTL

CC(C)C[C@H](NC(=O)[C@@H](NC(=O)[C@H](CCCNC(=N)N)NC(=O)[C@H](CC(N)=O)NC(=O)[C@H](CCCNC(=N)N)NC(=O)[C@H](CCCCN)NC(=O)[C@@H](N)CCCCN)[C@@H](C)O)C(=O)N[C@@H](CO)C(=O)N[C@H](C(=O)N[C@@H](C)C(=O)O)C(C)C (H-KKRNRTLSVA-OH)
Km for phosphorylation by MAPKAP-K1a [1]: almost identical Km and Vmax values as for Crosstide
Km for phosphorylation by MAPKAP-K1b [2]: almost identical Km and Vmax values as for Crosstide

CC[C@H](C)[C@H](NC(=O)[C@@H](N)CCC(=O)O)C(=O)N[C@@H](CC(C)C)C(=O)N[C@@H](CO)C(=O)N[C@@H](CCCNC(=N)N)C(=O)N[C@@H](CCCNC(=N)N)C(=O)N1CCC[C@H]1C(=O)N[C@@H](CO)C(=O)N[C@@H](Cc1ccc(O)cc1)C(=O)N[C@@H](CCCNC(=N)N)C(=O)N[C@@H](CCCCN)C(=O)O [CREBtide] (H-EILSRRPSYRK-OH)
Km [3]: < 0.1 µM

C[C@H](NC(=O)[C@H](Cc1ccccc1)NC(=O)[C@H](CO)NC(=O)[C@H](CO)NC(=O)[C@@H](NC(=O)[C@H](CCCNC(=N)N)NC(=O)[C@@H]1CCCN1C(=O)[C@H](CCCNC(=N)N)NC(=O)CN)[C@@H](C)O)C(=O)N[C@@H](CCC(=O)O)C(=O)NCC(=O)O [Crosstide] (H-GRPRTSSFAEG-OH)
Km [3]: 2 to 3 µM
Km [1]: 2 to 3 µM
Km [2]: 2 to 3 µM

CCCCCCCCCCCCCC(=O)O[C@@H]1[C@@H](C)[C@@]2(O)[C@@H](C=C(CO)C[C@]3(O)C(=O)C(C)=C[C@@H]23)[C@@H]2C(C)(C)[C@]12OC(C)=O [TPA, 12-O-tetradecanoylphorbol 13-acetate]
activation of overexpressed MAPKAP-K1a [4]: 100 fold
activation of transfected wild type MSK1 [5]: 200 fold

NGF: nerve growth factor used as cell stimulus
activation of MAPKAP-K1 by NGF [6]: five-fold

From patent US7122360B1, “Polypeptides, polynucleotides and uses thereof” (University of Dundee, priority 1998, dated 2006)
